Reference: patent publication US6355799B1, “Substituted benzene compounds, process for their preparation, and herbicidal and defoliant compositions containing them” (ISK Americas Incorporated, priority 1997, dated 2002)

How the values were obtained:
Type in all cases: in vivo
[1] = test system: lambsquarters (Chenopodium album, CHEAL); test: Pre-emerge test, greenhouse herbicide activity screening; settings: pre-emerge, rated 14 days after application, 0 = no damage, 100 = complete death
Outline: (§1)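 Fourteen days after spraying, crop and weed injury was graded visually from 0, no effect, to 100, every plant dead. Test substances were dissolved in acetone and applied at 15–1000 g ai/ha with a flat-fan nozzle. Application was either pre-emergence, one day after sowing, or post-emergence at the 2–3 leaf stage.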

[2] = test system: ivyleaf morningglory (Ipomoea hederacea, IPOHE); test: as above; settings: pre-emerge, rated 14 days after application, 0 = no damage, 100 = complete death
Outline: as §1

[3] = test system: johnsongrass (Sorghum halepense, SORHA); test: as above; settings: pre-emerge, rated 14 days after application, 0 = no damage, 100 = complete death
Outline: as §1

[4] = test system: green foxtail (Setaria viridis, SETVI); test: as above; settings: pre-emerge, rated 14 days after application, 0 = no damage, 100 = complete death
Outline: as §1

[5] = test system: sicklepod (Cassia obtusifolia, CASOB); test: as above; settings: pre-emerge, rated 14 days after application, 0 = no damage, 100 = complete death
Outline: as §1

[6] = test system: large crabgrass (Digitaria sanguinalis, DIGSA); test: as above; settings: pre-emerge, rated 14 days after application, 0 = no damage, 100 = complete death
Outline: as §1

[7] = test system: barnyardgrass (Echinochloa crus-galli, ECHCG); test: as above; settings: pre-emerge, rated 14 days after application, 0 = no damage, 100 = complete death
Outline: as §1

[8] = test system: velvetleaf (Abutilon theophrasti, ABUTH); test: as above; settings: pre-emerge, rated 14 days after application, 0 = no damage, 100 = complete death
Outline: as §1

[9] = test system: field corn (Zea mays L., var. Dekalb 535, CORN); test: Post-emerge test, crop safety; settings: phytotoxicity rating 0-100 (0 no damage, 100 complete death), 14 days after application
Outline: as §1

[10] = test system: upland rice (Oryza sp., var. Tebonnet, RICE); test: Post-emerge test, crop safety; settings: phytotoxicity rating 0-100 (0 no damage, 100 complete death), 14 days after application
Outline: as §1

[11] = test system: redroot pigweed (Amaranthus retroflexus, AMARE); test: Pre-emerge test, greenhouse herbicide activity screening; settings: pre-emerge, rated 14 days after application, 0 = no damage, 100 = complete death
Outline: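 Visual ratings on a 0-100 scale (0 no damage, 100 all plants dead) were taken at 14 days after treatment. Rates of 15-1000 g ai/ha in acetone, 187 l/ha, were sprayed onto soil one day after planting (pre-emerge) or onto 2-3 leaf plants with 0.25% v/v surfactant (post-emerge).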

[12] = test system: field corn (Zea mays L., var. Dekalb 535, CORN); test: Pre-emerge test, crop safety; settings: pre-emerge, rated 14 days after application, 0 = no damage, 100 = complete death
Outline: (§2)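 Applied at 15–1000 g ai/ha from acetone in 187 l/ha spray volume. Post-emergence applications included 0.25% v/v non-ionic surfactant and reached plants sown 8–21 days before. Pre-emergence applications were incorporated by surface watering. Efficacy or crop damage was rated on a 0–100 scale after 14 days.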

[13] = test system: upland rice (Oryza sp., var. Tebonnet, RICE); test: Pre-emerge test, crop safety; settings: pre-emerge, rated 14 days after application, 0 = no damage, 100 = complete death
Outline: as §2

[14] = test system: lambsquarters (Chenopodium album, CHEAL); test: Post-emerge test, greenhouse herbicide activity screening; settings: phytotoxicity rating 0-100 (0 no damage, 100 complete death), 14 days after application
Outline: as §1

[15] = test system: ivyleaf morningglory (Ipomoea hederacea, IPOHE); test: as above; settings: phytotoxicity rating 0-100 (0 no damage, 100 complete death), 14 days after application
Outline: as §1

[16] = test system: johnsongrass (Sorghum halepense, SORHA); test: as above; settings: phytotoxicity rating 0-100 (0 no damage, 100 complete death), 14 days after application
Outline: as §1

[17] = test system: green foxtail (Setaria viridis, SETVI); test: as above; settings: phytotoxicity rating 0-100 (0 no damage, 100 complete death), 14 days after application
Outline: as §1

[18] = test system: sicklepod (Cassia obtusifolia, CASOB); test: as above; settings: phytotoxicity rating 0-100 (0 no damage, 100 complete death), 14 days after application
Outline: as §1

[19] = test system: redroot pigweed (Amaranthus retroflexus, AMARE); test: as above; settings: phytotoxicity rating 0-100 (0 no damage, 100 complete death), 14 days after application
Outline: as §1

[20] = test system: large crabgrass (Digitaria sanguinalis, DIGSA); test: as above; settings: phytotoxicity rating 0-100 (0 no damage, 100 complete death), 14 days after application
Outline: as §1

[21] = test system: barnyardgrass (Echinochloa crus-galli, ECHCG); test: as above; settings: phytotoxicity rating 0-100 (0 no damage, 100 complete death), 14 days after application
Outline: as §1

[22] = test system: velvetleaf (Abutilon theophrasti, ABUTH); test: as above; settings: phytotoxicity rating 0-100 (0 no damage, 100 complete death), 14 days after application
Outline: as §1

## C=CC(=O)N(C(=O)C=C)c1c(OC)c(Cl)cc(F)c1-n1c(=O)cc(C(F)(F)F)n(C)c1=O [2-4]
[1]; 63 g ai/ha
  Pre-emerge Herbicidal Activity CHEAL (phytotoxicity rating, scale 0-100): 50
[1]; 250 g ai/ha
  Pre-emerge Herbicidal Activity CHEAL (phytotoxicity rating, scale 0-100): 100
[2]; 63 g ai/ha
  Pre-emerge Herbicidal Activity IPOHE (phytotoxicity rating, scale 0-100): 20
[2]; 250 g ai/ha
  Pre-emerge Herbicidal Activity IPOHE (phytotoxicity rating, scale 0-100): 70
[3]; 63 g ai/ha
  Pre-emerge Herbicidal Activity SORHA (phytotoxicity rating, scale 0-100): 0
[3]; 250 g ai/ha
  Pre-emerge Herbicidal Activity SORHA (phytotoxicity rating, scale 0-100): 0
[4]; 63 g ai/ha
  Pre-emerge Herbicidal Activity SETVI (phytotoxicity rating, scale 0-100): 0
[4]; 250 g ai/ha
  Pre-emerge Herbicidal Activity SETVI (phytotoxicity rating, scale 0-100): 80
[5]; 63 g ai/ha
  Pre-emerge Herbicidal Activity CASOB (phytotoxicity rating, scale 0-100): 0
[5]; 250 g ai/ha
  Pre-emerge Herbicidal Activity CASOB (phytotoxicity rating, scale 0-100): 0
[6]; 63 g ai/ha
  Pre-emerge Herbicidal Activity DIGSA (phytotoxicity rating, scale 0-100): 0
[6]; 250 g ai/ha
  Pre-emerge Herbicidal Activity DIGSA (phytotoxicity rating, scale 0-100): 50
[7]; 63 g ai/ha
  Pre-emerge Herbicidal Activity ECHCG (phytotoxicity rating, scale 0-100): 0
[7]; 250 g ai/ha
  Pre-emerge Herbicidal Activity ECHCG (phytotoxicity rating, scale 0-100): 0
[8]; 63 g ai/ha
  Pre-emerge Herbicidal Activity ABUTH (phytotoxicity rating, scale 0-100): 30
[8]; 250 g ai/ha
  Pre-emerge Herbicidal Activity ABUTH (phytotoxicity rating, scale 0-100): 100
[9]; 63 g ai/ha
  Post-emerge Herbicidal Activity CORN (crop damage): 0
[9]; 250 g ai/ha
  Post-emerge Herbicidal Activity CORN (crop damage): 0
[10]; 63 g ai/ha
  Post-emerge Herbicidal Activity RICE (crop damage): 0
[10]; 250 g ai/ha
  Post-emerge Herbicidal Activity RICE (crop damage): 0
[11]; 63 g ai/ha
  Pre-emerge Herbicidal Activity AMARE (phytotoxicity rating, scale 0-100): 80
[11]; 250 g ai/ha
  Pre-emerge Herbicidal Activity AMARE (phytotoxicity rating, scale 0-100): 95
[12]; 63 g ai/ha
  Pre-emerge crop damage CORN (phytotoxicity rating, scale 0-100): 0
[12]; 250 g ai/ha
  Pre-emerge crop damage CORN (phytotoxicity rating, scale 0-100): 20
[13]; 63 g ai/ha
  Pre-emerge crop damage RICE (phytotoxicity rating, scale 0-100): 0
[13]; 250 g ai/ha
  Pre-emerge crop damage RICE (phytotoxicity rating, scale 0-100): 10
[14]; 63 g ai/ha
  Post-emerge Herbicidal Activity CHEAL: 50
[14]; 250 g ai/ha
  Post-emerge Herbicidal Activity CHEAL: 50
[15]; 63 g ai/ha
  Post-emerge Herbicidal Activity IPOHE: 0
[15]; 250 g ai/ha
  Post-emerge Herbicidal Activity IPOHE: 20
[16]; 63 g ai/ha
  Post-emerge Herbicidal Activity SORHA: 10
[16]; 250 g ai/ha
  Post-emerge Herbicidal Activity SORHA: 10
[17]; 63 g ai/ha
  Post-emerge Herbicidal Activity SETVI: 0
[17]; 250 g ai/ha
  Post-emerge Herbicidal Activity SETVI: 0
[18]; 63 g ai/ha
  Post-emerge Herbicidal Activity CASOB: 0
[18]; 250 g ai/ha
  Post-emerge Herbicidal Activity CASOB: 0
[19]; 63 g ai/ha
  Post-emerge Herbicidal Activity AMARE: 0
[19]; 250 g ai/ha
  Post-emerge Herbicidal Activity AMARE: 70
[20]; 63 g ai/ha
  Post-emerge Herbicidal Activity DIGSA: 0
[20]; 250 g ai/ha
  Post-emerge Herbicidal Activity DIGSA: 0
[21]; 63 g ai/ha
  Post-emerge Herbicidal Activity ECHCG: 0
[21]; 250 g ai/ha
  Post-emerge Herbicidal Activity ECHCG: 0
[22]; 63 g ai/ha
  Post-emerge Herbicidal Activity ABUTH: 0
[22]; 250 g ai/ha
  Post-emerge Herbicidal Activity ABUTH: 50

## C=C(C)C(=O)Nc1c(OC)c(Cl)cc(F)c1-n1c(=O)cc(C(F)(F)F)n(C)c1=O [2-5]
[1]; 63 g ai/ha
  Pre-emerge Herbicidal Activity CHEAL (phytotoxicity rating, scale 0-100): 100
[1]; 250 g ai/ha
  Pre-emerge Herbicidal Activity CHEAL (phytotoxicity rating, scale 0-100): 100
[2]; 63 g ai/ha
  Pre-emerge Herbicidal Activity IPOHE (phytotoxicity rating, scale 0-100): 90
[2]; 250 g ai/ha
  Pre-emerge Herbicidal Activity IPOHE (phytotoxicity rating, scale 0-100): 100
[3]; 63 g ai/ha
  Pre-emerge Herbicidal Activity SORHA (phytotoxicity rating, scale 0-100): 60
[3]; 250 g ai/ha
  Pre-emerge Herbicidal Activity SORHA (phytotoxicity rating, scale 0-100): 90
[4]; 63 g ai/ha
  Pre-emerge Herbicidal Activity SETVI (phytotoxicity rating, scale 0-100): 100
[4]; 250 g ai/ha
  Pre-emerge Herbicidal Activity SETVI (phytotoxicity rating, scale 0-100): 100
[5]; 63 g ai/ha
  Pre-emerge Herbicidal Activity CASOB (phytotoxicity rating, scale 0-100): 40
[5]; 250 g ai/ha
  Pre-emerge Herbicidal Activity CASOB (phytotoxicity rating, scale 0-100): 100
[6]; 63 g ai/ha
  Pre-emerge Herbicidal Activity DIGSA (phytotoxicity rating, scale 0-100): 50
[6]; 250 g ai/ha
  Pre-emerge Herbicidal Activity DIGSA (phytotoxicity rating, scale 0-100): 95
[7]; 63 g ai/ha
  Pre-emerge Herbicidal Activity ECHCG (phytotoxicity rating, scale 0-100): 10
[7]; 250 g ai/ha
  Pre-emerge Herbicidal Activity ECHCG (phytotoxicity rating, scale 0-100): 90
[8]; 63 g ai/ha
  Pre-emerge Herbicidal Activity ABUTH (phytotoxicity rating, scale 0-100): 100
[8]; 250 g ai/ha
  Pre-emerge Herbicidal Activity ABUTH (phytotoxicity rating, scale 0-100): 100
[9]; 63 g ai/ha
  Post-emerge Herbicidal Activity CORN (crop damage): 5
[9]; 250 g ai/ha
  Post-emerge Herbicidal Activity CORN (crop damage): 10
[10]; 63 g ai/ha
  Post-emerge Herbicidal Activity RICE (crop damage): 30
[10]; 250 g ai/ha
  Post-emerge Herbicidal Activity RICE (crop damage): 40
[11]; 63 g ai/ha
  Pre-emerge Herbicidal Activity AMARE (phytotoxicity rating, scale 0-100): 90
[11]; 250 g ai/ha
  Pre-emerge Herbicidal Activity AMARE (phytotoxicity rating, scale 0-100): 100
[12]; 63 g ai/ha
  Pre-emerge crop damage CORN (phytotoxicity rating, scale 0-100): 10
[13]; 63 g ai/ha
  Pre-emerge crop damage RICE (phytotoxicity rating, scale 0-100): 70
[13]; 250 g ai/ha
  Pre-emerge crop damage RICE (phytotoxicity rating, scale 0-100): 80
[14]; 63 g ai/ha
  Post-emerge Herbicidal Activity CHEAL: 40
[14]; 250 g ai/ha
  Post-emerge Herbicidal Activity CHEAL: 70
[15]; 63 g ai/ha
  Post-emerge Herbicidal Activity IPOHE: 50
[15]; 250 g ai/ha
  Post-emerge Herbicidal Activity IPOHE: 90
[16]; 63 g ai/ha
  Post-emerge Herbicidal Activity SORHA: 0
[16]; 250 g ai/ha
  Post-emerge Herbicidal Activity SORHA: 30
[17]; 63 g ai/ha
  Post-emerge Herbicidal Activity SETVI: 0
[17]; 250 g ai/ha
  Post-emerge Herbicidal Activity SETVI: 0
[18]; 63 g ai/ha
  Post-emerge Herbicidal Activity CASOB: 10
[18]; 250 g ai/ha
  Post-emerge Herbicidal Activity CASOB: 50
[19]; 63 g ai/ha
  Post-emerge Herbicidal Activity AMARE: 20
[19]; 250 g ai/ha
  Post-emerge Herbicidal Activity AMARE: 40
[20]; 63 g ai/ha
  Post-emerge Herbicidal Activity DIGSA: 0
[20]; 250 g ai/ha
  Post-emerge Herbicidal Activity DIGSA: 0
[21]; 63 g ai/ha
  Post-emerge Herbicidal Activity ECHCG: 0
[21]; 250 g ai/ha
  Post-emerge Herbicidal Activity ECHCG: 0
[22]; 63 g ai/ha
  Post-emerge Herbicidal Activity ABUTH: 90
[22]; 250 g ai/ha
  Post-emerge Herbicidal Activity ABUTH: 100
